Laboratory results as given in PMC4899947 (Bioorganic & medicinal chemistry letters, 2016).
One block for each molecule: values may come before it.

What was measured:
human mGlu4 = human mGlu4 (Homo sapiens, UniProt Q14833); experiment: Calcium mobilization mGlu4 PAM assay; type: cell-based
other mGlu receptors = experiment: Selectivity versus the other mGlu receptors
[1] = tested on: haloperidol-induced catalepsy; experiment: Reversal of haloperidol-induced catalepsy; type: in vivo, rat; conditions: rats; for reversal of haloperidol-induced catalepsy (in words): p.o.
[2] = Plasma and brain samples from the oral HIC study; type: in vivo, rat; conditions: rats

human mGlu4, sequence (Q14833 33-912): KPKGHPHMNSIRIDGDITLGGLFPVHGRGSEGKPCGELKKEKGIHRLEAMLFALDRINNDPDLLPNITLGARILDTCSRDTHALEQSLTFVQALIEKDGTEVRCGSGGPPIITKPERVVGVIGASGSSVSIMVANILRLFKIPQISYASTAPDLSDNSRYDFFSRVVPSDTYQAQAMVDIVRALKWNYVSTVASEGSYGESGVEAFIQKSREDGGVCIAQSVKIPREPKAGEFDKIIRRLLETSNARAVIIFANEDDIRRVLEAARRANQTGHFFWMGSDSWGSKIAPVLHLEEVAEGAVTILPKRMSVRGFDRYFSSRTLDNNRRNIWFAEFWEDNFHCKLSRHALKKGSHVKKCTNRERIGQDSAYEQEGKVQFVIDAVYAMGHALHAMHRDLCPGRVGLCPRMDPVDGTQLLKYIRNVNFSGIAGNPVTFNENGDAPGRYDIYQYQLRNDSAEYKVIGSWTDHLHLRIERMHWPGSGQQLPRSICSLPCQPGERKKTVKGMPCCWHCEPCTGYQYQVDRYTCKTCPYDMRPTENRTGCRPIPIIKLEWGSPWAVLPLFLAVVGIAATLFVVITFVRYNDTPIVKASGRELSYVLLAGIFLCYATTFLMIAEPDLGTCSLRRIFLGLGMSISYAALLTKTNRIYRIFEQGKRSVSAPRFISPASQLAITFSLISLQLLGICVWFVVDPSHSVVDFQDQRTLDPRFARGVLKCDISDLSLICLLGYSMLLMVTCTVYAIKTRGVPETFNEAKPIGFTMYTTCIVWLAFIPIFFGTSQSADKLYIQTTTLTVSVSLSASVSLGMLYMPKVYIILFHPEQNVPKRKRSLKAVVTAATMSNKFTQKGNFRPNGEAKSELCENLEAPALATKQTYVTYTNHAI

SMILES: Nc1cccnc1C(=O)Nc1cccc(Cl)c1 [Compound 7]
fold less potent than 6 (human mGlu4; mGlu4 PAM EC50 relative to 6): ~ 7 fold

SMILES: Nc1cccnc1C(=O)Nc1ccc(N2C(=O)c3ccccc3C2=O)c(Cl)c1 [Compound 17a, N-(3-chloro-4-(1,3-dioxoisoindolin-2-yl)phenyl)-3-aminopicolinamide]
mGlu4 PAM activity (in words) (human mGlu4): good PAM activity | selectivity versus the other mGlu receptors (other mGlu receptors): excellent selectivity | reversal of haloperidol-induced catalepsy at 1 mg/kg p.o. ([1]; 1 mg/kg p.o., haloperidol 1.5 mg/kg, side-by-side with 6): as efficacious as 6 | reversal of haloperidol-induced catalepsy (in words) ([1]; haloperidol 1.5 mg/kg): robust efficacy | total brain level, fold above the rat mGlu4 PAM EC50 [2]: greater than 2 fold

SMILES: Cc1cccc2c1C(=O)N(c1ccc(NC(=O)c3ncccc3N)cc1Cl)C2=O [Compound 17d]
mGlu4 PAM activity (in words) (human mGlu4): good PAM activity

SMILES: Nc1cccnc1C(=O)Nc1ccc(N2Cc3ccccc3C2=O)c(Cl)c1 [Compound 17e]
mGlu4 PAM activity (in words) (human mGlu4): good PAM activity

More lines, main results first:

mGlu4 PAM activity (in words) (human mGlu4): devoid of PAM activity
SMILES: Nc1cccnc1C(=O)Nc1ccc(N2Cc3ccc(Cl)cc3C2=O)c(Cl)c1 [Compound 17g]

mGlu4 PAM activity (in words) (human mGlu4): good PAM activity
SMILES: COc1ccc2c(c1)C(=O)N(c1ccc(NC(=O)c3ncccc3N)cc1Cl)C2 [Compound 17h]

selectivity versus the other mGlu receptors (other mGlu receptors): excellent selectivity | total brain level, fold above the rat mGlu4 PAM EC50 [2]: greater than 3.5 fold
SMILES: CCc1cnc(Oc2ccc(NC(=O)c3ncccc3N)cc2Cl)nc1 [Compound 17t]
reversal of haloperidol-induced catalepsy at 3 mg/kg p.o. ([1]; 3 mg/kg p.o., comparable to 6 at 10 mg/kg p.o.): robust reversal | reversal of haloperidol-induced catalepsy (in words) ([1]; haloperidol 1.5 mg/kg): more efficacious than 6

mGlu4 PAM activity (in words) (human mGlu4): devoid of mGlu4 PAM activity
SMILES: CCc1cnc(Oc2ccc(NC(=O)c3ccncc3N)cc2Cl)nc1 [Compound 19]

fold loss of potency relative to 17t (human mGlu4; mGlu4 PAM EC50 relative to 17t): ~ 5 fold
SMILES: CCc1cnc(Oc2ccc(NC(=O)c3nccnc3N)cc2Cl)nc1 [Compound 20]
